For experiment [1], the system named is Escherichia coli. Briefly: Antibacterial activity against Escherichia coli MC4100 harbouring acrAB mutant assessed as reduction in bacterial growth by CLSI based broth microdilution method. Format: functional.
The nature of experiment [2]: Inhibition of Escherichia coli ATCC 25922 ATP synthase activity preincubated for 30 mins followed by NADH/ADP addition and measured after 60 mins by luciferin/luciferase luminescence assay.
Experiment [3] concerns Staphylococcus aureus. Briefly: Antibacterial activity against Staphylococcus aureus ATCC 29213 assessed as reduction in microbial growth incubated for 20 hrs under aerobic condition by CLSI based broth microdilution method. In kind it is functional.
Experiment [4] concerns Escherichia coli. Briefly: Antibacterial activity against Escherichia coli ATCC 25922 assessed as reduction in microbial growth incubated for 20 hrs under aerobic condition by CLSI based broth microdilution method. In kind it is functional.
The subject of experiment [5] is Escherichia coli. The experiment in a line: Antibacterial activity against Escherichia coli MC4100 harbouring lptD mutant assessed as reduction in bacterial growth by CLSI based broth microdilution method. Format: functional. (In general: In broth dilution the organism is exposed to a series of concentrations in liquid medium.)
Experiment [6] relates to Escherichia coli. Briefly: Antibacterial activity against Escherichia coli MC4100 assessed as reduction in bacterial growth by CLSI based broth microdilution method. Format: functional.
Experiment [7] concerns Staphylococcus aureus. Briefly: Antibacterial activity against Staphylococcus aureus ATCC 29213 hemB SCV assessed as reduction in microbial growth incubated for 20 hrs under aerobic condition by CLSI based broth microdilution method. In kind it is functional.

The values below come from ChEMBL document CHEMBL5634158, “From garden to lab: C-3 chemical modifications of tomatidine unveil broad-spectrum ATP synthase inhibitors to combat bacterial resistance” (Eur J Med Chem, 2023).

One may read the MIC as the least concentration at which growth counts as inhibited. A word on the IC50: it is the midpoint of a concentration-inhibition curve. High values mean weaker potency in that assay, low ones greater potency in that assay.

With `C[C@H]1CC[C@]2(NC1)O[C@H]1C[C@H]3[C@@H]4CC[C@H]5CC(NC[C@@H](N)Cc6ccc7ccccc7c6)CC[C@]5(C)[C@H]4CC[C@]3(C)[C@H]1[C@@H]2C` (mixture of isomers), the MIC with Escherichia coli [1] worked out at 4 µg/mL; in the experiment with Staphylococcus aureus [3] it was 1 µg/mL; in the experiment on Escherichia coli [4] it was 8 µg/mL; in the experiment on Escherichia coli [5], 8 µg/mL; in the experiment with Escherichia coli [6], 16 µg/mL. The IC50 in experiment [2] came out at 2000 nM.

For `C[C@H]1CC[C@]2(NC1)O[C@H]1C[C@H]3[C@@H]4CC[C@H]5CC(NC[C@@H](N)Cc6ccccc6C(F)(F)F)CC[C@]5(C)[C@H]4CC[C@]3(C)[C@H]1[C@@H]2C` (mixture of isomers), the results for the MIC in the experiment with Staphylococcus aureus [7], in the experiment with Staphylococcus aureus [3] and in the experiment on Escherichia coli [4] were 0.5 µg/mL, 2 µg/mL and 32 µg/mL, respectively.

In the case of `C[C@H]1CC[C@]2(NC1)O[C@H]1C[C@H]3[C@@H]4CC[C@H]5CC(N[C@@H]6CCNC6)CC[C@]5(C)[C@H]4CC[C@]3(C)[C@H]1[C@@H]2C` (mixture of isomers), the MIC with Escherichia coli [1] is 32 µg/mL; with Staphylococcus aureus [3] it was 32 µg/mL; with Escherichia coli [4], 64 µg/mL; in the experiment on Escherichia coli [5], 32 µg/mL; in the experiment with Escherichia coli [6], 64 µg/mL. The compound also came in with an IC50 in experiment [2] of 4700 nM.

`C[C@H]1CC[C@]2(NC1)O[C@H]1C[C@H]3[C@@H]4CC[C@H]5CC(NC[C@@H](N)Cc6ccc(F)cc6)CC[C@]5(C)[C@H]4CC[C@]3(C)[C@H]1[C@@H]2C` (mixture of isomers): the MIC in the experiment with Staphylococcus aureus [7] is no more than 0.25 µg/mL; in the experiment with Staphylococcus aureus [3] it was 4 µg/mL; in the experiment on Escherichia coli [4], 32 µg/mL.

As for `C[C@H]1CC[C@]2(NC1)O[C@H]1C[C@H]3[C@@H]4CC[C@H]5CC(NC[C@@H](N)Cc6ccc(Cl)cc6Cl)CC[C@]5(C)[C@H]4CC[C@]3(C)[C@H]1[C@@H]2C` (mixture of isomers), the values for the minimal inhibitory concentration (MIC) in the experiment with Staphylococcus aureus [7], in the experiment on Staphylococcus aureus [3] and in the experiment with Escherichia coli [4] were no more than 0.25 µg/mL, 2 µg/mL and 8 µg/mL, respectively.

With `C[C@H]1CC[C@]2(NC1)O[C@H]1C[C@H]3[C@@H]4CC[C@H]5CC(NC[C@@H](N)Cc6cccc(C(F)(F)F)c6)CC[C@]5(C)[C@H]4CC[C@]3(C)[C@H]1[C@@H]2C` (mixture of isomers), the MIC with Staphylococcus aureus [7] came to 2 µg/mL; in the experiment on Staphylococcus aureus [3], 5 µg/mL; in the experiment with Escherichia coli [4], 8 µg/mL.

Take `C[C@H]1CC[C@]2(NC1)O[C@H]1C[C@H]3[C@@H]4CC[C@H]5CC(NC[C@@H](N)Cc6c[nH]c7ccccc67)CC[C@]5(C)[C@H]4CC[C@]3(C)[C@H]1[C@@H]2C` (mixture of isomers): the MIC with Escherichia coli [1] is 4 µg/mL; in the experiment with Staphylococcus aureus [3], 2 µg/mL; in the experiment on Escherichia coli [4], 8 µg/mL; in the experiment with Escherichia coli [5], 2 µg/mL; in the experiment with Escherichia coli [6] it was 16 µg/mL. This compound also yielded a 50% inhibitory concentration (IC50) in experiment [2] of 1900 nM.

For `C[C@H]1CC[C@]2(NC1)O[C@H]1C[C@H]3[C@@H]4CC[C@H]5CC(NCCN6CCCC6)CC[C@]5(C)[C@H]4CC[C@]3(C)[C@H]1[C@@H]2C` (mixture of isomers), the minimal inhibitory concentration (MIC) in the experiment with Escherichia coli [1] amounted to 8 µg/mL; with Escherichia coli [4] it was 64 µg/mL; in the experiment with Escherichia coli [5] it was 0.5 µg/mL; in the experiment on Escherichia coli [6], 64 µg/mL. In experiment [2], this compound returned an IC50 of 900 nM.

Consider `C[C@H]1CC[C@]2(NC1)O[C@H]1C[C@H]3[C@@H]4CC[C@H]5CC(NCCNC(=N)N)CC[C@]5(C)[C@H]4CC[C@]3(C)[C@H]1[C@@H]2C` (mixture of isomers), for which the minimal inhibitory concentration (MIC) in the experiment on Staphylococcus aureus [3] was 8 µg/mL; with Escherichia coli [4] it was 64 µg/mL.

On to `C[C@H]1CC[C@]2(NC1)O[C@H]1C[C@H]3[C@@H]4CC[C@H]5CC(NCCN6CCNC6=O)CC[C@]5(C)[C@H]4CC[C@]3(C)[C@H]1[C@@H]2C` (mixture of isomers), for which the results for the minimal inhibitory concentration (MIC) with Staphylococcus aureus [3] and in the experiment with Escherichia coli [4] were 64 µg/mL and greater than 128 µg/mL, respectively.

For the compound `C[C@H]1CC[C@]2(NC1)O[C@H]1C[C@H]3[C@@H]4CC[C@H]5CC(NCc6ccc(O)cc6)CC[C@]5(C)[C@H]4CC[C@]3(C)[C@H]1[C@@H]2C` (mixture of isomers), the values for the MIC in the experiment on Staphylococcus aureus [3] and with Escherichia coli [4] were 8 µg/mL and greater than 128 µg/mL, respectively.

Take `C[C@H]1CC[C@]2(NC1)O[C@H]1C[C@H]3[C@@H]4CC[C@H]5CC(NCCO)CC[C@]5(C)[C@H]4CC[C@]3(C)[C@H]1[C@@H]2C` (mixture of isomers): the minimal inhibitory concentration (MIC) in the experiment on Staphylococcus aureus [3] and in the experiment with Escherichia coli [4] was greater than 128 µg/mL each time.

For `C[C@H]1CC[C@]2(NC1)O[C@H]1C[C@H]3[C@@H]4CC[C@H]5CC(NC[C@@H](N)Cc6cccc(Br)c6)CC[C@]5(C)[C@H]4CC[C@]3(C)[C@H]1[C@@H]2C` (mixture of isomers), the minimum inhibitory concentration (MIC) in the experiment on Staphylococcus aureus [3] was determined as 2 µg/mL; in the experiment with Escherichia coli [4], 8 µg/mL.

As to `C[C@H]1CC[C@]2(NC1)O[C@H]1C[C@H]3[C@@H]4CC[C@H]5CC(NCc6cn(C)cn6)CC[C@]5(C)[C@H]4CC[C@]3(C)[C@H]1[C@@H]2C` (mixture of isomers), the MIC with Staphylococcus aureus [3] was 32 µg/mL; in the experiment with Escherichia coli [4] it was greater than 128 µg/mL.

For `C[C@H]1CC[C@]2(NC1)O[C@H]1C[C@H]3[C@@H]4CC[C@H]5CC(NC[C@@H](O)CO)CC[C@]5(C)[C@H]4CC[C@]3(C)[C@H]1[C@@H]2C` (mixture of isomers), the MIC with Staphylococcus aureus [3] was 64 µg/mL; in the experiment on Escherichia coli [4], greater than 128 µg/mL.

For `C[C@H]1CC[C@]2(NC1)O[C@H]1C[C@H]3[C@@H]4CC[C@H]5CC(NC[C@@H](N)Cc6ccc([N+](=O)[O-])cc6)CC[C@]5(C)[C@H]4CC[C@]3(C)[C@H]1[C@@H]2C` (mixture of isomers), the minimal inhibitory concentration (MIC) in the experiment on Staphylococcus aureus [3] was determined as 2 µg/mL; in the experiment with Escherichia coli [4], 64 µg/mL.

Regarding `COC(=O)CNC1CC[C@@]2(C)[C@@H](CC[C@@H]3[C@@H]2CC[C@]2(C)[C@@H]4[C@H](C[C@@H]32)O[C@@]2(CC[C@H](C)CN2)[C@H]4C)C1` (mixture of isomers), the minimal inhibitory concentration (MIC) in the experiment on Staphylococcus aureus [3] and with Escherichia coli [4] was greater than 128 µg/mL throughout.

Turning to `C[C@H]1CC[C@]2(NC1)O[C@H]1C[C@H]3[C@@H]4CC[C@H]5CC(NCc6ccccn6)CC[C@]5(C)[C@H]4CC[C@]3(C)[C@H]1[C@@H]2C` (mixture of isomers), the MIC with Staphylococcus aureus [3] and in the experiment with Escherichia coli [4] was greater than 128 µg/mL throughout.

As to `C[C@H]1CC[C@]2(NC1)O[C@H]1C[C@H]3[C@@H]4CC[C@H]5CC(NC[C@@H](N)CC6CCCCC6)CC[C@]5(C)[C@H]4CC[C@]3(C)[C@H]1[C@@H]2C` (mixture of isomers), the minimal inhibitory concentration (MIC) was 4 µg/mL in the experiment with Staphylococcus aureus [3] and 16 µg/mL in the experiment on Escherichia coli [4].

Take `C[C@H]1CC[C@]2(NC1)O[C@H]1C[C@H]3[C@@H]4CC[C@H]5CC(NC[C@@H](N)Cc6ccc(C(F)(F)F)cc6)CC[C@]5(C)[C@H]4CC[C@]3(C)[C@H]1[C@@H]2C` (mixture of isomers): the MIC is 1 µg/mL in the experiment on Staphylococcus aureus [7], 2 µg/mL in the experiment on Staphylococcus aureus [3] and 8 µg/mL with Escherichia coli [4].
